Earlier results, collected in patent US7323476B2, “Myriceric acid derivatives for the treatment of cancer, cardiovascular and inflammatory diseases” (SaviPu Pharmaceuticals, priority 2006, dated 2008).

Key:
NF-κB = details: qualitative statement on natural products of Fig. R
endothelin receptor = details: qualitative, earlier studies

Row | Compound | inhibition of NF-κB (NF-κB) | binding to the endothelin receptor (endothelin receptor)
1 | COc1c(O)cc(O)c2c(=O)cc(-c3ccccc3)oc12 [wogonin] | good activity | –
2 | Theaflavin-3,3′-digallate | potent inhibitor | –
3 | myriceric acid A [PM2011A] | – | already been demonstrated
